Measurements taken from US20230029372A1, “THERAPEUTIC COMPOSITIONS AND METHODS FOR PREVENTION AND TREATMENT OF DIASTOLIC DYSFUNCTION” (AMBETEX PTY LTD, priority 2019, published 2023).
“Also recorded” adds a separate entry of the source.

What was measured:
Format in all cases: in vivo
[1] = tested on: plasma Aβ species; test: PF06648671-High Fat Diet (HFD) treatment study: plasma Aβ species by ELISA; conditions: obese mice
Protocol: PF06648671-High Fat Diet (HFD) treatment study: At 12 weeks of age, mice (n=30) were placed on a HFD with 43% of calories from fat (23.5% by weight; SF04-001 High Fat Rodent Diet Based on D12451, Specialty Feeds, Glen Forrest, Wash.). After 13 weeks of the diet period, echocardiography was performed on all mice to obtain pre-drug treatment measures of cardiac function. Mice were allocated to treatment groups so that measures of cardiac function and morphology were matched as best as possible. PF06648671 (Medkoo Biosciences) was resuspended in 100% DMSO before being diluted in a hydroxypropyl cellulose solution to give a final solution containing lmg/mL PF06648671 in 10% hydroxypropyl cellulose and 5% DMSO. A vehicle solution containing 10% hydroxypropyl cellulose and 5% DMSO was also made. Aliquots of both drug and vehicle were stored at −80° C. until required. The HFD/PF06648671 group was administered 4 mg/kg of PF06648671 per day by oral gavage, while the HFD/control group received an equivalent volume of vehicle. Echocardiography was then performed following 4 weeks of the treatment period to obtain post-drug treatment measures of cardiac function. […] Plasma Aβ species were measured using high sensitivity ELISA kits (Wako Diagnostics) and plasma that was diluted 1:10 with assay buffer.

[2] = tested on: obese mice; test: PF06648671-High Fat Diet (HFD) treatment study: echocardiography
Protocol: PF06648671-High Fat Diet (HFD) treatment study: At 12 weeks of age, mice (n=30) were placed on a HFD with 43% of calories from fat (23.5% by weight; SF04-001 High Fat Rodent Diet Based on D12451, Specialty Feeds, Glen Forrest, Wash.). After 13 weeks of the diet period, echocardiography was performed on all mice to obtain pre-drug treatment measures of cardiac function. Mice were allocated to treatment groups so that measures of cardiac function and morphology were matched as best as possible. PF06648671 (Medkoo Biosciences) was resuspended in 100% DMSO before being diluted in a hydroxypropyl cellulose solution to give a final solution containing lmg/mL PF06648671 in 10% hydroxypropyl cellulose and 5% DMSO. A vehicle solution containing 10% hydroxypropyl cellulose and 5% DMSO was also made. Aliquots of both drug and vehicle were stored at −80° C. until required. The HFD/PF06648671 group was administered 4 mg/kg of PF06648671 per day by oral gavage, while the HFD/control group received an equivalent volume of vehicle. Echocardiography was then performed following 4 weeks of the treatment period to obtain post-drug treatment measures of cardiac function. Following 5 weeks of the drug administration, mice were humanely killed via cervical dislocation and blood was immediately obtained via cardiac puncture and stored in a heparinised tube. The heart, epididymal fat pad, mesenteric fat pad, liver, quadricep, hind limb and brain were then immediately dissected. The heart was blotted prior to being weighed and all tissues were snap frozen in liquid nitrogen and stored at −80° C. Plasma Aβ species were measured using high sensitivity ELISA kits (Wako Diagnostics) and plasma that was diluted 1:10 with assay buffer.

[3] = tested on: Male C57BL6 mice; test: Aβ40 administration study: plasma Aβ40 and echocardiography; conditions: 1 μg/day i.p.
Protocol: Aβ40 administration study: Lyophilised recombinant Aβ40 (Millipore) and scrambled control peptide (ScrAβ40; Millipore) were resuspended in 1% NH4OH and aliquoted at 200 ng/ml in H2O and stored at −80° C. for no longer than 4 weeks. Male C57BL6 mice were obtained from the Animal Resource Centre (Perth, Wash.) at 4 weeks of age and housed with 4 mice per cage on a 12 hr light/dark cycle at a temperature of 22° C. and a constant humidity with a normal rodent diet. At 12 weeks of age, mice were grouped according to body mass and composition, determined by EchoMRI. Mice were then administered 1 μg of recombinant Aβ40 or ScrAβ40 (n=12/group per cohort) by i.p. injection once/day for 5 wks. After 4 weeks of peptide administration, cardiac function was assessed by echocardiography as follows. Mice were anaesthetised with inhalation of 1.5% isoflurane anaesthesia and echocardiography was performed using the Phillips HD15 diagnostic ultrasound system with a 15 MHz linear-array transducer by an experienced veterinarian. The velocity of blood flow through the mitral valve was analysed using Doppler mode imaging. […] Doppler imaging was also utilised to measure the velocity of blood flow through the aortic valve. The measurements were then used to calculate the ejection time, peak aortic flow and heart rate. M-mode imaging of the left ventricle was used to measure the thickness of the inter-ventricular septum (IVS), left ventricular internal diameter (LVID) and left ventricular posterior wall (LVPW) in both diastole (d) and end-systole (s) as well as systolic measures such as ejection fraction and fractional shortening. An estimation of LV mass was calculated from the m-mode imaging by using the formula (1.05[LVIDd+LVPWd+IVSd]^3−[LVIDd]^3) by Troy et al. (1972). Mice were humanely killed by cervical dislocation 1 week later. Blood was obtained immediately following by cardiac puncture and the heart, and other tissues were immediately removed. Hearts were washed in ice cold PBS and weighed prior to being snap frozen in liquid nitrogen. Plasma Aβ40 was measured using a high sensitivity ELISA kit (Wako Diagnostics) and plasma that was diluted 1:10 with assay buffer.

[4] = tested on: Male C57BL6 mice; test: Aβ42 administration study: plasma Aβ42, body measures, GTT with glucose tracers, cardiac TAG, gene expression
Protocol: Male C57BL6 mice were obtained from the Animal Resource Centre (Perth, Wash.) at 4 weeks of age and housed with 4 mice per cage on a 12 hr light/dark cycle at a temperature of 22° C. and a constant humidity with a normal rodent diet. At 12 weeks of age, mice were grouped according to body mass and composition, determined by EchoMRI. […] An i.p. glucose tolerance test (GTT) was performed on the final treatment day following an overnight fast. Mice were administered 2 g/kg lean mass of glucose including radioactive glucose tracers, prepared as follows. 100 μl of 1 μCi/μl glucose analogue, [^3H]-2-deoxyglucose (2-DOG), and 500 μl of 200 μCi/mL U-^14C glucose were evaporated to dryness before redissolving the radioactive tracers in 1 mL of 50% glucose. This produced a 50% glucose solution containing 100 μCi/mL [^3H]-2-DOG and 100 μCi/mL U-^14C glucose. The tail tip of each mouse was cut off and the blood glucose concentration of a blood sample was measured using an AccuCheck II glucometer (Roche). The GTT was initiated via intraperitoneal injection of the radiolabelled glucose solution (2 g/kg body weight, 10 uCi/animal) into the overnight-fasted mice. Further blood samples were taken at 15, 30, 45, 60 and 90 minutes after the injection for the measurement of blood glucose. Blood samples (30 μl) were also taken from the tail tip at each time point and diluted in 100 μl of saline. These samples were then centrifuged and the supernatant collected. 50 μl of the supernatant was diluted in 500 μl of distilled water and then suspended in 4 mL of Ultima Gold XR scintillation fluid (Packard Bioscience). Blood radioactivity was determined at each time point by performing liquid scintillation counting on each solution using the Beckman scintillation counter (LS6000 SC). At the conclusion of the GTT, mice were killed via cervical dislocation. Blood was obtained immediately following by cardiac puncture and the heart, and other tissues were immediately removed. Hearts were washed in ice cold PBS and weighed prior to being snap frozen in liquid nitrogen. The heart (30 mg), epididymal fat pad (30 mg and quadriceps skeletal muscle (30 mg) were homogenised in 1.5 ml of distilled water. The homogenate was centrifuged at 3000 rpm for 10 min at 4° C. 400 μl of the supernatant was diluted into 1.6 mL of distilled water and then suspended in 14 mL of Ultima Gold XR scintillation fluid (Packard Bioscience). The radioactivity of each sample (from both [^3H]-2-DOG6P and [^3H]-2-DOG) was determined by liquid scintillation counting using the Beckman scintillation counter (LS6000 SC). The ^3H radioactivity was used to measure glucose uptake into each tissue.
To determine the incorporation of U-^14C glucose into triglyceride and the total triglyceride content in the heart, an extraction of triglyceride was carried out using a chloroform/methanol mixture. Samples of heart (30 mg) were hand-homogenised in 2 mL of chloroform/methanol (2:1) and the homogeniser rinsed in a further 2 mL of chloroform/methanol (2:1), and the washings being added to the original extract in 10 mL tubes. The tubes were tightly capped and mixed on a rotator overnight to maximise extraction of the triglycerides. 2 ml of 0.6% saline was then added, to facilitate the separation of the organic and aqueous phases, after which the tubes were mixed thoroughly and then centrifuged at 2000 rpm for 10 minutes. The lower chloroform phase (containing triglycerides) was collected and evaporated to dryness under nitrogen at 45° C. The dried extract was then re-dissolved in 250 μl of 100% ethanol, to redissolve the lipid and enable aliquots to dispensed for assay. The amount of U-^14C glucose clearance into the lipid fraction was measured by suspending 100 μl of the triglyceride solution in 5 mL of Ultima Gold XR scintillation fluid (Packard Bioscience), followed by scintillation counting using the Beckman scintillation counter (LS6000 SC).

[5] = tested on: Male C57BL6 mice; test: Aβ42 administration study: cardiac function by echocardiography
Protocol: After 4 weeks of peptide administration, cardiac function was assessed by echocardiography as follows. Mice were anaesthetised with inhalation of 1.5% isoflurane anaesthesia and echocardiography was performed using the Phillips HD15 diagnostic ultrasound system with a 15 MHz linear-array transducer by an experienced veterinarian. The velocity of blood flow through the mitral valve was analysed using Doppler mode imaging. […] Doppler imaging was also utilised to measure the velocity of blood flow through the aortic valve. The measurements were then used to calculate the ejection time, peak aortic flow and heart rate. M-mode imaging of the left ventricle was used to measure the thickness of the inter-ventricular septum (IVS), left ventricular internal diameter (LVID) and left ventricular posterior wall (LVPW) in both diastole (d) and end-systole (s) as well as systolic measures such as ejection fraction and fractional shortening. An estimation of LV mass was calculated from the m-mode imaging by using the formula (1.05 [LVIDd+LVPWd+IVSd]^3−[LVIDd]^3) by Troy et al. (1972). Mice were humanely killed by cervical dislocation 1 week later. Blood was obtained immediately following by cardiac puncture and the heart, and other tissues were immediately removed. Hearts were washed in ice cold PBS and weighed prior to being snap frozen in liquid nitrogen.
Hearts were also collected for morphological analysis (FIG. 2).

[6] = GTT after five weeks of peptide, vs ScrAβ42

Cc1cn(-c2ccc3n(c2=O)CCN([C@@H](C)[C@@H]2CC[C@H](c4cc(F)c(Cl)cc4C(F)(F)F)O2)C3=O)cn1 [PF06648671]
plasma Aβ40 ([1]; 4 mg/kg per day oral gavage (FIG. 7A)): decreased | plasma Aβ42 ([1]; 4 mg/kg per day oral gavage (FIG. 7B), 4 mg/kg/day): decreased; also recorded: reduced | relative change in the E:A ratio, Vehicle vs PF06648671 groups ([2]; obese mice (FIG. 7D)): significantly different | E:A ratio Pre-treatment to Post-treatment ([2]; obese mice, 4 mg/kg per day oral gavage, 4 weeks (FIG. 7C)): did not change; also recorded: prevented deterioration | E:A ratio relative to Pre-treatment values ([2]; obese mice, 4 mg/kg per day oral gavage, 4 weeks (FIG. 7D)): 114%

Aβ40: Lyophilised recombinant Aβ40 (Millipore)
E:A ratio ([3]; 5 weeks (FIG. 6B)): did not have any effect | DT ([3]; 5 weeks (FIG. 6C)): did not have any effect | ejection fraction ([3]; 5 weeks (FIG. 6E)): nor any effect | IVSd ([3]; 5 weeks (FIG. 6F)): no effect | LVIDd ([3]; 5 weeks (FIG. 6G)): no effect | LV mass ([3]; 5 weeks (FIG. 6H)): no effect | plasma Aβ40 ([3]; 5 weeks, vs ScrAβ40 (FIG. 6A)): significantly increased

Aβ42: Lyophilised recombinant Aβ42 (Millipore)
increase in plasma Aβ42 ([4]; 1 μg/day i.p., five weeks, compared with ScrAβ42 (FIG. 1A)): approximately 3 fold | plasma insulin throughout the GTT [4, 6]: no difference | whole body glucose tolerance [4, 6]: no difference | glucose incorporation into TAG (14C-glucose labelling) ([4]; heart, after five weeks of peptide (FIG. 1C)): greater | total TAG ([4]; heart, after five weeks of peptide (FIG. 1D)): increased | cardiac gene expression (inflammation, endoplasmic reticulum stress) ([4]; heart, after five weeks of peptide (FIG. 1E)): gene expression changes indicative of cardiac stress responses | internal dimensions of the left ventricle (LVIDd) ([5]; Aβ42 vs ScrAβ42 (FIG. 2B)): no effect | deceleration time ([5]; Aβ42 vs ScrAβ42 (FIG. 2D)): increased | E normalised by isovolumetric relaxation time (IVRT) ([5]; Aβ42 vs ScrAβ42 (FIG. 2E)): no significant difference | fractional shortening ([5]; Aβ42 vs ScrAβ42 (FIG. 2F)): reduced | ejection fraction ([5]; Aβ42 vs ScrAβ42 (FIG. 2G)): reduced | gross heart weight ([5]; Aβ42 vs ScrAβ42, five weeks (FIG. 2A)): no effect
